# Reference: PMC11283614 (Veterinary World, 2024)
# Read-outs that look alike come from different tables or passages of the source. Marks after values point to notes of the source that are not given here.
# Tests used:
# [1] = in vitro; details: African green monkey
# [2] = Syrian, in vivo; for Number of dead hamsters after 2 days / Number of dead hamsters after 7 days: hamster
# [3] = test system: SARS-CoV-2 (delta strain); parameters: species or system Syrian hamsters; details: hamster, in vivo
# [4] = test system: SARS-CoV-2; assay: Suppression of SARS-CoV-2 replication in Vero cells, CPE-based titration of supernatant; format: cell-based; details: for Time during which viral activity was inhibited: 100 TCD50/mL SARS-CoV-2, compounds added after 1 h virus incubation; for Suppression of viral activity: up to a dilution of 100 TCD50/ml
# [5] = test system: SARS-CoV-2 (delta strain); parameters: species or system Syrian hamsters; details: hamster, in vivo; remark: listed apart in the source
# [6] = test system: SARS-CoV-2; assay: Myelogram / bone marrow cell populations of infected hamsters; format: in vivo, Syrian hamsters
# [7] = test system: SARS-CoV-2; assay: Blood cell populations (blood smears) of infected hamsters; format: in vivo, Syrian hamsters; details: 7 dpi, therapeutic action
# [8] = test system: VERO cells; details: incubation 24 h
smiles,measurement,setting,value
CSc1nnc2cc(C)nc(SC)n12 [5a],CC50,[1],240 µg/mL
COC(=O)CSc1nnc2cc(C)nc(SC)n12 [5c],CC50,[1],40 µg/mL
CSc1nc(C)cc2nnc(SCCOc3ccccc3)n12 [5d],Number of dead hamsters after 2 days,[2]; 0.2 mg/kg,0
same,Number of dead hamsters after 7 days,[2]; 0.2 mg/kg,0
same,Number of dead hamsters after 2 days,[2]; 1 mg/kg,0
same,Number of dead hamsters after 7 days,[2]; 1 mg/kg,0
same,BM section histology (H&E),[3],preserved structure and cellularity
same,BM smear,[3],restored erythroid population
same,Time during which viral activity was inhibited,[4],24 to 72 h
same,Suppression of viral activity,[4],almost completely suppressed
same,Development of lung injury (micro-CT),[5],inhibited
same,CC50,[1],320 µg/mL
same,Effect on bone marrow changes seen in the positive control group,[6]; 9th day,does not obstruct the similar bone marrow changes
same,Recovery of bone marrow cell populations compared to the positive control,[6]; 18th day,more rapid recovery of all cell populations
same,Myelogram: Band,"[6]; infected hamsters, 9 dpi",26.1 ± 4.4%
same,Myelogram: Basophil,"[6]; infected hamsters, 9 dpi",0.1 ± 0.04%
same,Myelogram: Basophil erythroblast,"[6]; infected hamsters, 9 dpi",4.6 ± 0.9%
same,Myelogram: Destroyed,"[6]; infected hamsters, 9 dpi",3.2 ± 0.3%
same,Myelogram: Eosinophil,"[6]; infected hamsters, 9 dpi",3.2 ± 0.4%
same,Myelogram: Limph.patol.,"[6]; infected hamsters, 9 dpi",1.1 ± 0.4%
same,Myelogram: Lymphoblast,"[6]; infected hamsters, 9 dpi",3.5 ± 0.6%
same,Myelogram: Lymphocyte,"[6]; infected hamsters, 9 dpi",8.9 ± 1.2%
same,Myelogram: Macroph. Island,"[6]; infected hamsters, 9 dpi",1.6 ± 0.03%
same,Myelogram: Macroph. Resident,"[6]; infected hamsters, 9 dpi",1.6 ± 0.05%
same,Myelogram: Megakaryoblast,"[6]; infected hamsters, 9 dpi",1.6 ± 0.02%
same,Myelogram: Megakaryocyte azurophil,"[6]; infected hamsters, 9 dpi",1.6 ± 0.1%
same,Myelogram: Megakaryocyte basophil,"[6]; infected hamsters, 9 dpi",1.6 ± 0.1%
same,Myelogram: Metamyelocyte,"[6]; infected hamsters, 9 dpi",5.2 ± 1.0%
same,Myelogram: Mitos,"[6]; infected hamsters, 9 dpi",1.6 ± 0.02%
same,Myelogram: Monoblast,"[6]; infected hamsters, 9 dpi",2.9 ± 0.7%
same,Myelogram: Monocyte,"[6]; infected hamsters, 9 dpi",3.8 ± 0.8%
same,Myelogram: Myeloid,"[6]; infected hamsters, 9 dpi",3.9 ± 0.5%
same,Myelogram: Ortochrom erythroblast,"[6]; infected hamsters, 9 dpi",8.8 ± 0.9%
same,Myelogram: Pathol neutrophil,"[6]; infected hamsters, 9 dpi",2.1 ± 0.5%
same,Myelogram: Polychromatophil erythroblast,"[6]; infected hamsters, 9 dpi",5.9 ± 2.1%
same,Myelogram: Proerythroblast,"[6]; infected hamsters, 9 dpi",3.1 ± 0.5%
same,Myelogram: Segment,"[6]; infected hamsters, 9 dpi",3.7 ± 0.5%
same,Myelogram: Band,"[6]; infected hamsters, 18 dpi",15.6 ± 3.1 %
same,Myelogram: Basophil,"[6]; infected hamsters, 18 dpi",0.01 ± 0.01%
same,Myelogram: Destroyed,"[6]; infected hamsters, 18 dpi",0.1 ± 0.01%
same,Myelogram: Eosinophil,"[6]; infected hamsters, 18 dpi",0.2 ± 0.01%
same,Myelogram: Limph.patol.,"[6]; infected hamsters, 18 dpi",0.1 ± 0.04 %
same,Myelogram: Lymphoblast,"[6]; infected hamsters, 18 dpi",2.3 ± 0.5%
same,Myelogram: Lymphocyte,"[6]; infected hamsters, 18 dpi",5.2 ± 0.8%
same,Myelogram: Macroph. Island,"[6]; infected hamsters, 18 dpi",0.1 ± 0.01%
same,Myelogram: Macroph. Resident,"[6]; infected hamsters, 18 dpi",0.1 ± 0.01%
same,Myelogram: Megakaryoblast,"[6]; infected hamsters, 18 dpi",0.03 ± 0.02%
same,Myelogram: Megakaryocyte azurophil,"[6]; infected hamsters, 18 dpi",0.01 ± 0.01%
same,Myelogram: Megakaryocyte basophil,"[6]; infected hamsters, 18 dpi",0.01 ± 0.01%
same,Myelogram: Metamyelocyte,"[6]; infected hamsters, 18 dpi",20.1 ± 4.3%
same,Myelogram: Mitos,"[6]; infected hamsters, 18 dpi",0.01 ± 0.01%
same,Myelogram: Monoblast,"[6]; infected hamsters, 18 dpi",1.0 ± 0.02%
same,Myelogram: Monocyte,"[6]; infected hamsters, 18 dpi",1.5 ± 0.4%
same,Myelogram: Myeloid,"[6]; infected hamsters, 18 dpi",14.3 ± 2.7%
same,Myelogram: Pathol neutrophil,"[6]; infected hamsters, 18 dpi",0.1 ± 0.01 %
same,Myelogram: Polychromatophil erythroblast,"[6]; infected hamsters, 18 dpi",17.9 ± 2.3 %
same,Myelogram: Segment,"[6]; infected hamsters, 18 dpi",3.3 ± 0.3 %
same,Blood cells: Band,[7],19 ± 4.8%
same,Blood cells: Basophil,[7],0.01%
same,Blood cells: Destroyed,[7],1.0%
same,Blood cells: Eosinophil,[7],0.1 ± 0.05%
same,Blood cells: Lymphoblast,[7],0.9 ± 0.2%
same,Blood cells: Lymphocyte,[7],65 ± 9.3%
same,Blood cells: Metamyelocyte,[7],2 ± 0.5%
same,Blood cells: Monocyte,[7],2.1 ± 0.3%
same,Blood cells: Myeloid,[7],1.1 ± 0.1%
same,Blood cells: Segment,[7],8.8%
CSc1nnc2cc(C)nc(SCc3ccccc3)n12 [6a],CC50,[1],20 µg/mL
Cc1cc2nnc(SCCOc3ccccc3)n2c(SCc2ccccc2)n1 [6d],CC50,[1],320 µg/mL
same,Monolayer preservation of VERO cells (toxicity),[8],-
CSc1nnc2ccc(-n3nc(C)cc3C)nn12 [10a],CC50,[1],40 µg/mL
Cc1cc(C)n(-c2ccc3nnc(SCC(N)=O)n3n2)n1 [10b],Number of dead hamsters after 2 days,[2]; 0.16 mg/kg,0
same,Number of dead hamsters after 7 days,[2]; 0.16 mg/kg,0
same,Number of dead hamsters after 2 days,[2]; 0.8 mg/kg,0
same,Number of dead hamsters after 7 days,[2]; 0.8 mg/kg,1 ^*
same,Autopsy and histological findings in dead hamster,[2]; 0.8 mg/kg,"* Autopsy and histological studies revealed massive hemorrhages in the abdominal cavity and leukopenia. In all investigated preparations except 10b, no lethal effect was observed throughout the experiment. No abnormal appearance or behavior was noted in all investigated groups."
same,Liver pathology (leukocyte / neutrophilic diapedesis),[3],Absence of neutrophils in liver tissues
same,Time during which viral activity was inhibited,[4],24 to 72 h
same,Suppression of viral activity,[4],almost completely suppressed
same,Development of lung injury (micro-CT),[5],inhibited
same,CC50,[1],240 µg/mL
same,Blood cells: Band,[7],27 ± 8.6%
same,Blood cells: Destroyed,[7],0.9 ± 0.02%
same,Blood cells: Eosinophil,[7],0.1 ± 0.01%
same,Blood cells: Lymphoblast,[7],4.0 ± 0.3%
same,Blood cells: Lymphocyte,[7],42.3 ± 6.7%
same,Blood cells: Metamyelocyte,[7],1.0 ± 0.1%
same,Blood cells: Monocyte,[7],3.9 ± 0.9%
same,Blood cells: Myeloid,[7],1 ± 0.05%
same,Blood cells: Pathol neutrophil,[7],2.8 ± 0.7%
same,Blood cells: Segment,[7],20%
Cc1cc(C)n(-c2ccc3nnc(SCCOc4ccccc4)n3n2)n1 [10d],Number of dead hamsters after 2 days,[2]; 0.32 mg/kg,0
same,Number of dead hamsters after 7 days,[2]; 0.32 mg/kg,0
same,Number of dead hamsters after 2 days,[2]; 1.6 mg/kg,0
same,Number of dead hamsters after 7 days,[2]; 1.6 mg/kg,0
same,Spleen smear,[3],proliferation of late erythroblasts
same,Time during which viral activity was inhibited,[4],24 to 72 h
same,Suppression of viral activity,[4],almost completely suppressed
same,Development of lung injury (micro-CT),[5],inhibited
same,CC50,[1],480 µg/mL
same,Blood cells: Band,[7],20.7 ± 7.3%
same,Blood cells: Basophil,[7],0.01 ± 0.005%
same,Blood cells: Eosinophil,[7],0.5 ± 0.01%
same,Blood cells: Lymphoblast,[7],0.9 ± 0.1%
same,Blood cells: Lymphocyte,[7],58 ± 6.2%
same,Blood cells: Metamyelocyte,[7],3.1 ± 0.4%
same,Blood cells: Monoblast,[7],1.0 ± 0.1%
same,Blood cells: Pathol neutrophil,[7],0.9 ± 0.1%
same,Blood cells: Segment,[7],13%
Cc1cc(C)n(-c2ccc3nnc(C)n3n2)n1 [compound 8],Number of dead hamsters after 2 days,[2]; 0.3 mg/kg,0
same,Number of dead hamsters after 7 days,[2]; 0.3 mg/kg,0
same,Number of dead hamsters after 2 days,[2]; 1.5 mg/kg,0
same,Number of dead hamsters after 7 days,[2]; 1.5 mg/kg,0
same,LN section histology (H&E),[3],preserved structure and cellularity
same,Lung pathology (diffuse lymphocytic-macrophage infiltrates),[3],Mild pathological manifestations
same,Time during which viral activity was inhibited,[4],24 to 72 h
same,Suppression of viral activity,[4],almost completely suppressed
same,Development of lung injury (micro-CT),[5],inhibited
same,CC50,[1],480 µg/mL
same,Blood cells: Band,[7],10.0 ± 2.7%
same,Blood cells: Destroyed,[7],1.9 ± 0.3%
same,Blood cells: Eosinophil,[7],0.5 ± 0.1%
same,Blood cells: Lymphoblast,[7],1.1 ± 0.1%
same,Blood cells: Lymphocyte,[7],77.2 ± 8.1%
same,Blood cells: Metamyelocyte,[7],2.0 ± 0.6%
same,Blood cells: Monoblast,[7],2.9 ± 0.5%
same,Blood cells: Monocyte,[7],1.2 ± 0.1%
same,Blood cells: Segment,[7],4%
